Test results published in patent publication US20100222349A1, “QUINOLINE DERIVATIVES USED TO TREAT INFLAMMATORY AND ALLERGIC DISEASES” (Glaxo Group Limited, priority 2007, published 2010).

Assays:
histamine H3 receptor = target: T1, histamine H3 receptor (Homo sapiens, UniProt Q9Y5N1); test: Histamine H3 functional antagonist assay (GTPγS, membranes); assay type: biochemical; settings: CHO K1 membranes, [35S]-GTPγS, histamine at EC80; read-out: average pKi (pKb) at H3 (converted)
T1 construct: expressed in transfected cells; host or cells: CHO K1 cells with pSwitch/pGeneH3 (GeneSwitch, mifepristone-induced), clone 3H3; membrane preparation
T1 sequence (Q9Y5N1 whole entry, species assumed): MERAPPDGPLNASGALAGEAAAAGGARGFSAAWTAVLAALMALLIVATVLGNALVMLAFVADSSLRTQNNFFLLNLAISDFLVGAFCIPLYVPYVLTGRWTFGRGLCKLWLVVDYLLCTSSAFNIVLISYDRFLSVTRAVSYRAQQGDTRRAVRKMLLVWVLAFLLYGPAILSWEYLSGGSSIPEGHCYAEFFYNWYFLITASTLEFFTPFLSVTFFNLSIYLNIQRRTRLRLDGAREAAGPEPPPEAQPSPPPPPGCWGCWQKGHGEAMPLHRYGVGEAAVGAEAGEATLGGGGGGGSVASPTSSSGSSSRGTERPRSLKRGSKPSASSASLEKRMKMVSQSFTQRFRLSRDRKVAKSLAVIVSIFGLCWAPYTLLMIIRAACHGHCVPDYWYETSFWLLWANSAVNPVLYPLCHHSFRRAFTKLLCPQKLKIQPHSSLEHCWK
Description: The histamine H3 cDNA is isolated from its holding vector, pcDNA3.1 TOPO (InVitrogen), by restriction digestion of plasmid DNA with the enzymes BamH1 and Not-1 and is ligated into the inducible expression vector pGene (InVitrogen) digested with the same enzymes. The GeneSwitchTM system (a system where in transgene expression is switched off in the absence of an inducer and switched on in the presence of an inducer) is performed as described in U.S. Pat. Nos. 5,364,791; 5,874,534; and 5,935,934. Ligated DNA is transformed into competent DH5α E. coli host bacterial cells and is plated onto Luria Broth (LB) agar containing ZeocinTM (an antibiotic which allows the selection of cells expressing the sh ble gene which is present on pGene and pSwitch) at 50 μgml^-1. Colonies containing the re-ligated plasmid are identified by restriction analysis. DNA for transfection into mammalian cells is prepared from 250 ml cultures of the host bacterium containing the […]3 plasmid and is isolated using a DNA preparation kit (Qiagen Midi-Prep) as per manufacturers guidelines (Qiagen). CHO K1 cells previously transfected with the pSwitch regulatory plasmid (InVitrogen) are seeded at 2×10^6 cells per T75 flask in Complete Medium, containing Hams F12 (GIBCOBRL, Life Technologies) medium supplemented with 10% v/v dialysed foetal bovine serum, L-glutamine, and hygromycin (100 μgml^-1), 24 h prior to use. Plasmid DNA is transfected into the cells using Lipofectamine plus according to the manufacturer's guidelines (InVitrogen). 48 h post transfection, cells are placed into complete medium supplemented with 500 μgml^-1 ZeocinTM. 10-14 days post selection, 10 nM Mifepristone (InVitrogen) is added to the culture medium to induce the expression of the receptor. 18 h post induction, cells are detached from the flask using ethylenediamine tetra-acetic acid (EDTA; 1:5000; InVitrogen), following several washes with PBS, pH 7.4 and are resuspended in Sorting Medium containing Minimum Essential Medium (MEM), without phenol red, and are supplemented with Earles salts and 3% Foetal Clone II (Hyclone). Approximately 1×10^7 cells are examined for receptor expression by staining with a rabbit polyclonal antibody, 4a, raised against the N-terminal domain of the histamine H3 receptor, are incubated on ice for 60 min, followed by two washes in sorting medium. Receptor bound antibody is detected by incubation of the cells for 60 min on ice with a goat anti rabbit antibody, conjugated with Alexa 488 fluorescence marker (Molecular Probes). Following two further washes with Sorting Medium, cells are filtered through a 50 μm FilconTM (BD Biosciences) and then are analysed on a FACS Vantage SE Flow Cytometer fitted with an Automatic Cell Deposition Unit. Control cells are non-induced cells treated in an analogous manner. Positively stained cells are sorted as single cells into 96-well plates, containing Complete Medium containing 500 μgml^-1 ZeocinTM and are allowed to expand before reanalysis for receptor expression via antibody and ligand binding studies. One clone, 3H3, is selected for membrane preparation. All steps of the protocol are carried out at 4° C. and with pre-cooled reagents. The cell pellet is resuspended in 10 volumes of homogenisation buffer (50 mM N-2-hydroxyethylpiperazine-N'-2-ethanesulfonic acid (HEPES), 1 mM ethylenediamine tetra-acetic acid (EDTA), pH 7.4 with KOH, supplemented with 10^-6 M leupeptin (acetyl-leucyl-leucyl-arginal; Sigma L2884), 25 μgml^-1 bacitracin (Sigma B0125), 1 mM phenylmethylsulfonyl fluoride (PMSF) and 2×10^-6 M pepstain A (Sigma)). The cells are then homogenised by 2×15 sec bursts in a 1 L glass Waring blender, followed by centrifugation at 500 g for 20 min. The supernatant is then spun at 48,000 g for 30 min. The pellet is resuspended in homogenisation buffer (4× the volume of the original cell pellet) by vortexing for 5 sec, followed by homogenisation in a Dounce homogeniser (10-15 strokes). […]

human H1 receptor = target: T2, human H1 receptor (Homo sapiens, UniProt P35367); test: Histamine H1 functional antagonist assay: determination of functional pKi values (FLIPR); assay type: cell-based; settings: CHO cells expressing human H1 receptor, histamine at EC80, read-out: average pKi (pKb) at H1 (converted)
T2 construct: expressed in transfected cells
T2 sequence (P35367 whole entry): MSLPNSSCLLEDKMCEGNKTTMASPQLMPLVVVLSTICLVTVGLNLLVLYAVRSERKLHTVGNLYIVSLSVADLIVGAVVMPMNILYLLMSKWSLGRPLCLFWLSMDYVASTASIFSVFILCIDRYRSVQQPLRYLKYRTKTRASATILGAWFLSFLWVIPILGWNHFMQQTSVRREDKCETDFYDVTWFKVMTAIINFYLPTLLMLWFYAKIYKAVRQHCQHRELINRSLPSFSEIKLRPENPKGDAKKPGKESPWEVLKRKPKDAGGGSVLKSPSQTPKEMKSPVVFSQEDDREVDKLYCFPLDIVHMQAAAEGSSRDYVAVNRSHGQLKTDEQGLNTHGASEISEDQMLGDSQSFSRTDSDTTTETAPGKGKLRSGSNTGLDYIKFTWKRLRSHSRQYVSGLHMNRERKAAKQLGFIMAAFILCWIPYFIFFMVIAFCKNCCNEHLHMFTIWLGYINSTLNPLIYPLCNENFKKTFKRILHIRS
Description: The human H1 receptor is cloned using known procedures described in the literature [Biochem. Biophys. Res. Commun., 201(2):894 (1994)]. Chinese hamster ovary (CHO) cells stably expressing the human H1 receptor are generated according to known procedures described in the literature [Br. J. Pharmacol., 117(6):1071 (1996)]. The histamine H1 cell line is seeded into non-coated black-walled clear bottom 384-well tissue culture plates in alpha minimum essential medium (Gibco/Invitrogen, cat no. 22561-021), supplemented with 10′)/0 dialysed foetal calf serum (Gibco/Invitrogen cat no. 12480-021) and 2 mM L-glutamine (Gibco/Invitrogen cat no 25030-024) and is maintained overnight at 5% CO2, 37° C. Excess medium is removed from each well to leave 10 μl. 30 μl loading dye (250 μM Brilliant Black, 2 μM Fluo-4 diluted in Tyrodes buffer+probenecid (145 mM NaCl, 2.5 mM KCl, 10 mM HEPES, 10 mM D-glucose, 1.2 mM MgCl2, 1.5 mM CaCl2, 2.5 mM probenecid, pH adjusted to 7.40 with NaOH 1.0 M)) is added to each well and the plates are incubated for 60 min at 5% CO2, 37° C. 10 μl of test compound, diluted to the required concentration in Tyrodes buffer+probenecid (or 10 μl Tyrodes buffer+probenecid as a control) is added to each well and the plate is incubated for 30 min at 37° C., 5% CO2. The plates are then placed into a FLIPR™(Molecular Devices, UK) to monitor cell fluorescence (λex=488 nm, λEM=540 nm) in the manner described in Sullivan et al., (In: Lambert DG (ed.), Calcium Signaling Protocols, New Jersey: Humana Press, 1999, 125-136) before and after the addition of 10 μl histamine at a concentration that results in the final assay concentration of histamine being EC80. Functional antagonism is indicated by a suppression of histamine induced increase in fluorescence, as measured by the FLIPR™ system (Molecular Devices). By means of concentration effect curves, functional affinities are determined using standard pharmacological mathematical analysis.

Work on `CCCCc1cc(OC2CCN(CC3CCN(C(C)=O)CC3)CC2)c2ncccc2c1` [Example 1, 8-({1-[(1-Acetyl-4-piperidinyl)methyl]-4-piperidinyl}oxy)-6-butylquinoline] yielded a Ki (histamine H3 receptor) of over 316 nM and a Ki (human H1 receptor) of under 100 nM.
`CCCCc1cc(OC2CCN(CC3CCN(C(=O)CC)CC3)CC2)c2ncccc2c1` [Example 2, 6-Butyl-8-({1-[(1-propanoyl-4-piperidinyl)methyl]-4-piperidinyl}oxy)quinoline] gave a Ki (histamine H3 receptor) of over 316 nM and a Ki (human H1 receptor) of under 100 nM.
In the case of `CCCCc1cc(OC2CCN(CCC3CCN(C(C)=O)CC3)CC2)c2ncccc2c1` [Example 3, 8-({1-[2-(1-Acetyl-4-piperidinyl)ethyl]-4-piperidinyl}oxy)-6-butylquinoline], the Ki (histamine H3 receptor) is reported as over 316 nM and the Ki (human H1 receptor) is reported as under 100 nM.
For `CCCCc1cc(OC2CCN(CCC3CCN(C(=O)CC)CC3)CC2)c2ncccc2c1` [Example 4, 6-Butyl-8-({1-[2-(1-propanoyl-4-piperidinyl)ethyl]-4-piperidinyl}oxy)quinoline], the Ki (histamine H3 receptor) was over 316 nM and the Ki (human H1 receptor) was under 100 nM.
Work on `CCCCc1cc(OC2CCN(CC3CCCNC3=O)CC2)c2ncccc2c1` (stereo not drawn) [Example 5, 3-({4-[(6-butyl-8-quinolinyl)oxy]-1-piperidinyl}methyl)-2-piperidinone] yielded a Ki (histamine H3 receptor) of over 316 nM and a Ki (human H1 receptor) of under 10 nM.
For `CCCCc1cc(OC2CCN(CCCC(=O)NC(C)(C)C)CC2)c2ncccc2c1` [Example 6, 4-{4-[(6-Butyl-8-quinolinyl)oxy]-1-piperidinyl}-N-(1,1-dimethylethyl)butanamide], the Ki (histamine H3 receptor) was over 316 nM and the Ki (human H1 receptor) was under 10 nM.
Work on `CCCCc1cc(OC2CCN(CCC(=O)N(CC)CC)CC2)c2ncccc2c1` [Example 7, 3-{4-[(6-Butyl-8-quinolinyl)oxy]-1-piperidinyl}-N,N-diethylpropanamide] yielded a Ki (histamine H3 receptor) of over 316 nM and a Ki (human H1 receptor) of under 10 nM.
`CCCCc1cc(OC2CCN(CC(=O)NCCCOC)CC2)c2ncccc2c1` [Example 8, 2-{4-[(6-butyl-8-quinolinyl)oxy]-1-piperidinyl}-N-[3-(methyloxy)propyl] acetamide] showed a Ki (histamine H3 receptor) of over 3160 nM and a Ki (human H1 receptor) of under 100 nM.
With `CCCCc1cc(OC2CCN(CC(=O)N(CC)CC)CC2)c2ncccc2c1` [Example 9, 2-{4-[(6-butyl-8-quinolinyl)oxy]-1-piperidinyl}-N,N-diethylacetamide] the Ki (histamine H3 receptor) was over 3160 nM and the Ki (human H1 receptor) was under 100 nM.
With `CCCCc1cc(OC2CCN(CC(=O)NCCC)CC2)c2ncccc2c1` [Example 10, 2-{4-[(6-butyl-8-quinolinyl)oxy]-1-piperidinyl}-N-propylacetamide] the Ki (histamine H3 receptor) was over 316 nM and the Ki (human H1 receptor) was over 1000 nM.
Compound `CCCCc1cc(OC2CCN(CC(=O)NCCOC)CC2)c2ncccc2c1` [Example 11, 2-{4-[(6-butyl-8-quinolinyl)oxy]-1-piperidinyl}-N-[2-(methyloxy)ethyl] acetamide] has a Ki (histamine H3 receptor) of over 3160 nM and a Ki (human H1 receptor) of under 100 nM.
With `CCCCc1cc(OC2CCN(CC(=O)NC(C)(C)C)CC2)c2ncccc2c1` [Example 12, 2-{4-[(6-butyl-8-quinolinyl)oxy]-1-piperidinyl}-N-(1,1-dimethylethyl) acetamide] the Ki (histamine H3 receptor) was over 3160 nM and the Ki (human H1 receptor) was under 100 nM.
Work on `CCCCc1cc(OC2CCN(CC(=O)N3CCCCC3)CC2)c2ncccc2c1` [Example 13, 6-butyl-8-({1-[2-oxo-2-(1-piperidinyl)ethyl]-4-piperidinyl}oxy) quinoline] yielded a Ki (histamine H3 receptor) of over 3160 nM and a Ki (human H1 receptor) of under 100 nM.
For `CCCCc1cc(OC2CCN(CC(=O)NC(C)C)CC2)c2ncccc2c1` [Example 14, 2-{4-[(6-butyl-8-quinolinyl)oxy]-1-piperidinyl}-N-(1-methylethyl)acetamide], the Ki (histamine H3 receptor) was over 3160 nM and the Ki (human H1 receptor) was under 100 nM.
Compound `CCCCc1cc(OC2CCN(CCC(=O)NCC)CC2)c2ncccc2c1` [Example 15, 3-{4-[(6-butyl-8-quinolinyl)oxy]-1-piperidinyl}-N-ethylpropanamide] has a Ki (histamine H3 receptor) of over 3160 nM and a Ki (human H1 receptor) of under 100 nM.
Compound `CCCCc1cc(OC2CCN(CCC(=O)NCCCOC)CC2)c2ncccc2c1` [Example 16, 3-{4-[(6-butyl-8-quinolinyl)oxy]-1-piperidinyl}-N-[3-(methyloxy)propyl] propanamide] has a Ki (histamine H3 receptor) of over 3160 nM and a Ki (human H1 receptor) of under 10 nM.
With `CCCCc1cc(OC2CCN(CCC(=O)NC(C)(C)C)CC2)c2ncccc2c1` [Example 17, 3-{4-[(6-butyl-8-quinolinyl)oxy]-1-piperidinyl}-N-(1,1-dimethylethyl) propanamide] the Ki (histamine H3 receptor) was over 3160 nM and the Ki (human H1 receptor) was under 10 nM.
`CCCCc1cc(OC2CCN(CCC(=O)N3CCCCC3)CC2)c2ncccc2c1` [Example 18, 6-butyl-8-({1-[3-oxo-3-(1-piperidinyl)propyl]-4-piperidinyl}oxy) quinoline] showed a Ki (histamine H3 receptor) of over 316 nM and a Ki (human H1 receptor) of under 10 nM.
With `CCCCc1cc(OC2CCN(CCC(=O)NC(C)C)CC2)c2ncccc2c1` [Example 19, 3-{4-[(6-butyl-8-quinolinyl)oxy]-1-piperidinyl}-N-(1-methylethyl) propanamide] the Ki (histamine H3 receptor) was over 3160 nM and the Ki (human H1 receptor) was under 10 nM.
`CCCCc1cc(OC2CCN(CCCC(=O)NCC)CC2)c2ncccc2c1` [Example 20, 4-{4-[(6-butyl-8-quinolinyl)oxy]-1-piperidinyl}-N-ethylbutanamide] showed a Ki (histamine H3 receptor) of over 3160 nM and a Ki (human H1 receptor) of under 10 nM.
In the case of `CCCCc1cc(OC2CCN(CCCC(=O)NCCCOC)CC2)c2ncccc2c1` [Example 21, 4-{4-[(6-butyl-8-quinolinyl)oxy]-1-piperidinyl}-N-[3-(methyloxy)propyl] butanamide], the Ki (histamine H3 receptor) is reported as over 3160 nM and the Ki (human H1 receptor) is reported as under 10 nM.
For `CCCCc1cc(OC2CCN(CCCC(=O)NCCC)CC2)c2ncccc2c1` [Example 22, 4-{4-[(6-butyl-8-quinolinyl)oxy]-1-piperidinyl}-N-propylbutanamide], the Ki (histamine H3 receptor) was over 3160 nM and the Ki (human H1 receptor) was under 10 nM.
For `CCCCc1cc(OC2CCN(CCCCC(=O)NC(C)C)CC2)c2ncccc2c1` [Example 32, 5-{4-[(6-butyl-8-quinolinyl)oxy]-1-piperidinyl}-N-(1-methylethyl) pentanamide], the Ki (human H1 receptor) was under 10 nM.
